In patent US20190002942A1, “ANTIBIOTIC FIIRV 104/18 COMPLEX AND THE ISOLATED INDIVIDUAL FACTORS THEREOF” (Fondazione Istituto Insubrico di Ricerca per la Vita, priority 2015, published 2019):
Converted amounts (≈) assume the structure as drawn. Where two headings read alike, the source gives them in different places. Blank lines part the entries; values can stand above or below the compound they belong to.

Columns and labels:
[1] = tested on: Gram-positive susceptible, resistant and multi-resistant pathogenic bacteria; assay: Growth inhibition of Gram-positive bacteria (summary); assay type: cell-based; settings: Gram positive bacteria: Staphylococci incl. MRSA and MR coagulase-negative, Streptococci, Enterococci incl. VanA
Method: (§1) Antimicrobial activity of the antibiotic FIIRV 104/18 complex is determined by the broth microdilution method according to the procedures published by the Clinical and Laboratory Standards Institute (CLSI), formerly the National Committee for Clinical Laboratory Standards (NCCLS) (document M07-A9). Inocula are: 2-5×10^5 CFU/mL for Gram positive and Gram negative bacteria; 10^4 CFU/mL for Candida albicans.
(§2) The media used are: cation adjusted Mueller Hinton broth (CAMHB) for Staphylococci, Enterococci, Moraxella catarrhalis, Escherichia coli; Todd Hewitt broth (THB) for Streptococci; RPMI 1640 Medium for C. albicans. The effect of 30% bovine serum is determined under the same experimental conditions.
(§3) Cultures are incubated at 35° C. in air. After 18-24 hours visual readings are performed and MICs determined. The MIC (Minimal Inhibitory Concentration) is defined as the lower concentration of antibiotic at which there is no visible growth. The strains used are clinical isolates or strains from American Type Culture Collection (ATCC). Individual factors of antibiotic FIIRV 104/18 are dissolved in DMSO to obtain a 1000 μg/mL stock solution, and subsequently diluted in water to obtain working solution.

[2] = tested on: L1729 S. haemolyticus MDR; assay: MIC, broth microdilution (CLSI); assay type: cell-based; settings: Staphylococcus haemolyticus
Method: (§4) Inocula are: 2-5×10^5 CFU/mL for Gram positive and Gram negative bacteria; 10^4 CFU/mL for Candida albicans.
(§5) The effect of 30% bovine serum is determined under the same experimental conditions.
(§6) Cultures are incubated at 35° C. in air. After 18-24 hours visual readings are performed and MICs determined. The MIC (Minimal Inhibitory Concentration) is defined as the lower concentration of antibiotic at which there is no visible growth. The strains used are clinical isolates or strains from American Type Culture Collection (ATCC).

[3] = tested on: L3030 A. baumannii; assay: MIC, broth microdilution (CLSI); assay type: cell-based; settings: Acinetobacter baumannii; L3030 A. baumannii; read-out: MIC
Method: as §4, §5, §6

[4] = tested on: L568 E. faecium; assay: MIC, broth microdilution (CLSI); assay type: cell-based; settings: Enterococcus faecium
Method: as §4, §5, §6

[5] = tested on: L1730 S. haemolyticus; assay: MIC, broth microdilution (CLSI); assay type: cell-based; settings: Staphylococcus haemolyticus
Method: as §4, §5, §6

[6] = tested on: L1577 S. epidermidis; assay: MIC, broth microdilution (CLSI); assay type: cell-based; settings: Staphylococcus epidermidis
Method: as §4, §5, §6

[7] = tested on: L1400 S. aureus MRSA; assay: MIC, broth microdilution (CLSI); assay type: cell-based; settings: Staphylococcus aureus
Method: as §4, §5, §6

[8] = tested on: L100 S. aureus ATCC 6538; assay: MIC, broth microdilution (CLSI); assay type: cell-based; settings: Staphylococcus aureus, ATCC6538
Method: as §4, §5, §6

[9] = tested on: L47 E. coli, SKF 12140; assay: MIC, broth microdilution (CLSI); assay type: cell-based; settings: Escherichia coli
Method: as §4, §5, §6

[10] = tested on: L3294 M. catarrhalis; assay: MIC, broth microdilution (CLSI); assay type: cell-based; settings: Moraxella catarrhalis
Method: as §4, §5, §6

[11] = tested on: L49 S. pyogenes C203; assay: MIC, broth microdilution (CLSI); assay type: cell-based; settings: Streptococcus pyogenes
Method: as §4, §5, §6

[12] = tested on: L44 S. pneumoniae; assay: MIC, broth microdilution (CLSI); assay type: cell-based; settings: Streptococcus pneumoniae
Method: as §4, §5, §6

[13] = tested on: L559 E. faecalis; assay: MIC, broth microdilution (CLSI); assay type: cell-based; settings: Enterococcus faecalis
Method: as §4, §5, §6

[14] = tested on: L560 E. faecalis VanA; assay: MIC, broth microdilution (CLSI); assay type: cell-based, Enterococcus faecalis
Method: as §4, §5, §6

[15] = tested on: L2048 B. cenocepacia; assay: MIC, broth microdilution (CLSI); assay type: cell-based; settings: Burkholderia cenocepacia; L2048 B. cenocepacia; read-out: MIC
Method: as §1, §2, §3

[16] = tested on: Staphylococcus aureus Smith ATCC 19636; assay: Murine Staphylococcus aureus infection model; assay type: in vivo, ICR mice
Method: Female ICR mice (Harlan, Italy) weighing 21-24 g are infected intraperitoneally (ip) with 5×10^4 cells of Staphylococcus aureus Smith ATCC 19636 in 0.5 mL of 5% gastric mucine. Antibiotic FIIRV 104/18 factor F795 is administered intravenously (iv) within 10-15 min after infection. […] In: Statistical Methods in Biological Assay, 524-530, (1952) Charles Griffin &Co., Ltd., London].

[17] = tested on: L819 S. aureus Smith ATCC19636; assay: MIC, broth microdilution (CLSI); assay type: cell-based, Staphylococcus aureus
Method: as §4, §5, §6

[18] = tested on: L145 C. albicans; assay: MIC, broth microdilution (CLSI); assay type: cell-based, Candida albicans; settings: Candida albicans; L145 C. albicans; RPMI; inoculum 10^4 CFU/mL; read-out: MIC
Method: as §1, §2, §3

[19] = tested on: L569 E. faecium VanA; assay: MIC, broth microdilution (CLSI); assay type: cell-based, Enterococcus faecium
Method: as §4, §5, §6

MIC [3]: 16 µg/mL (≈ 20.1 µM)
MIC ([4]; L568 E. faecium, CAMHB, read-out: MIC): 0.25 µg/mL (≈ 0.314 µM)
MIC ([6]; L1577 S. epidermidis, CAMHB, read-out: MIC): 0.015 µg/mL (≈ 0.0189 µM)
MIC ([7]; L1400 S. aureus MRSA, CAMHB, read-out: MIC): 0.015 µg/mL (≈ 0.0189 µM)
MIC ([8]; L100 S. aureus ATCC 6538, CAMHB, read-out: MIC): 0.008 µg/mL (≈ 0.0101 µM)
MIC ([9]; L47 E. coli, SKF 12140, CAMHB, read-out: MIC): > 128 µg/mL
MIC ([10]; L3294 M. catarrhalis, CAMHB, read-out: MIC): 0.125 µg/mL (≈ 0.157 µM)
MIC ([11]; L49 S. pyogenes C203, THB, read-out: MIC): 0.015 µg/mL (≈ 0.0189 µM)
MIC ([12]; L44 S. pneumoniae, THB, read-out: MIC): 0.015 µg/mL (≈ 0.0189 µM)
MIC ([13]; L559 E. faecalis, CAMHB, read-out: MIC): 0.25 µg/mL (≈ 0.314 µM)
MIC ([14]; Enterococcus faecalis, L560 E. faecalis VanA, +30% SB (bovine serum), read-out: MIC): 0.5 µg/mL (≈ 0.628 µM)
MIC ([14]; Enterococcus faecalis, L560 E. faecalis VanA, CAMHB, read-out: MIC): 0.125 µg/mL (≈ 0.157 µM)
MIC [15]: 32 µg/mL (≈ 40.2 µM)
MIC ([17]; Staphylococcus aureus, ATCC19636, L819 S. aureus Smith ATCC19636, CAMHB, read-out: MIC): 0.002 µg/mL (≈ 0.00251 µM)
MIC ([17]; Staphylococcus aureus, ATCC19636, L819 S. aureus Smith, +30% SB (bovine serum), read-out: MIC): 0.125 µg/mL (≈ 0.157 µM)
MIC [18]: > 128 µg/mL
MIC ([19]; Enterococcus faecium, L569 E. faecium VanA, +30% SB (bovine serum), read-out: MIC): 2 µg/mL (≈ 2.51 µM)
MIC ([19]; Enterococcus faecium, L569 E. faecium VanA, CAMHB, read-out: MIC): 0.25 µg/mL (≈ 0.314 µM)
SMILES: COC(=O)c1c(C)cc2c(c1O)[C@]1(O)C(=O)c3cc4c(c(O)c3C(=O)[C@]1(OC)[C@H](O)C2)C(=O)C=C(N[C@H]1O[C@@H](C)[C@H](O[C@@H]2CCC(=O)[C@H](C)O2)[C@@H](O)[C@H]1OC)C4=O [F795, (6R,6aS,14aR)-methyl 11-[(2S,3R,4R,5R,6S)-4-hydroxy-3-methoxy-6-methyl-5-{[(2S,6S)-6-methyl-5-oxotetrahydro-2H-pyran-2-yl]oxy}tetrahydro-2H-pyran-2-ylamino]-1,6,8,14a-tetrahydroxy-6a-methoxy-3-methyl-7,9,12,14-tetraoxo-5,6,6a,7,9,12,14,14a-octahydrobenzo[a]tetracene-2-carboxylate]
antibacterial activity (in words) [1]: very high antibacterial activity
MIC ([2]; L1729 S. haemolyticus MDR, CAMHB, read-out: MIC): 0.015 µg/mL (≈ 0.0189 µM)
MIC ([5]; L1730 S. haemolyticus, CAMHB, read-out: MIC): 0.015 µg/mL (≈ 0.0189 µM)
ED50 ([16]; ATCC19636, read-out: ED50 (50% effective dose), mice infected ip with S. aureus Smith ATCC 19636, iv within 10-15 min after infection, Spearman-Karber): 0.8 mg/kg

SMILES: CN[C@H](CC(C)C)C(=O)N[C@H]1C(=O)N[C@@H](CC(N)=O)C(=O)N[C@H]2C(=O)N[C@H]3C(=O)N[C@H](C(=O)N[C@H](C(=O)O)c4cc(O)cc(O)c4-c4cc3ccc4O)[C@H](O)c3ccc(c(Cl)c3)Oc3cc2cc(c3O[C@@H]2O[C@H](CO)[C@@H](O)[C@H](O)[C@H]2O[C@H]2C[C@](C)(N)[C@H](O)[C@H](C)O2)Oc2ccc(cc2Cl)[C@H]1O [V, vancomycin, reference compound]
MIC [2]: 2 µg/mL (≈ 1.38 µM)
MIC [4]: 2 µg/mL (≈ 1.38 µM)
MIC [5]: 2 µg/mL (≈ 1.38 µM)
MIC [6]: 2 µg/mL (≈ 1.38 µM)
MIC ([7]; MRSA): 1 µg/mL (≈ 0.69 µM)
MIC [8]: 1 µg/mL (≈ 0.69 µM)
MIC [9]: > 2 µg/mL
MIC [10]: > 2 µg/mL
MIC [11]: 0.5 µg/mL (≈ 0.345 µM)
MIC [12]: 0.5 µg/mL (≈ 0.345 µM)
MIC [13]: 1 µg/mL (≈ 0.69 µM)
MIC ([14]; Enterococcus faecalis): > 128 µg/mL
MIC ([14]; L560 E. faecalis VanA, +30% SB (bovine serum)): >128 µg/mL
ED50 ([16]; ATCC19636, read-out: ED50 (50% effective dose)): 0.93 mg/kg
MIC ([17]; L819 S. aureus Smith, +30% SB (bovine serum)): 1 µg/mL (≈ 0.69 µM)
MIC ([17]; Staphylococcus aureus, ATCC19636): 1 µg/mL (≈ 0.69 µM)
MIC ([19]; Enterococcus faecium): > 128 µg/mL
MIC ([19]; L569 E. faecium VanA, +30% SB (bovine serum)): >128 µg/mL
